In patent publication US20090220432A1, “Imaging agents and methods of using same for detecting multidrug resistance in cancer” (The Johns Hopkins University, priority 2005, published 2009):
“Also recorded” adds a separate entry of the source.

Experiments:
[1] = system: MCF-7^adr cells; experiment: Fluorescent microscopy of contrast agent uptake; assay type: cell-based, Human
Procedure: (§1) Cells were treated with 100 μg/ml DMCD prior to the exposure to Tat-GdDOTA-TAMRA. An Eclipse E400 microscope with a C-SHG1 super high pressure mercury lamp and a Coolpix 5000 digital camera (Nikon Inc., Tokyo, Japan) was used for fluorescent microscopy. Exposure time= 1/15 s, magnification=×40.
(§2) In addition to the above experiments, collected cell pellets were incubated with 250 μl of Tat-GdDOTA-TAMRA (0.5 mg/ml in EMEM) for 20 min at 37° C. in the 5% CO2 incubator. After consecutive washing with PBS, cells were fixed in 3% paraformaldehyde for 15 min. As a control, cells were incubated with EMEM alone. To inhibit multidrug resistance mechanisms, 100 μM of DMCD was added to cells for 20 min prior to exposure to Tat-GdDOTA-TAMRA. In each step, cells were washed thoroughly. TAMRA fluorescence was detected in the orange-red region using band-selective emission filters centered around 600 nm.

[2] = system: MCF-7^adr cells; experiment: Flow cytometry (FACS) of contrast agent uptake; assay type: cell-based, Human
Procedure: FIG. 4 is a graph showing fluorescence detection of Tat-GdDOTA-TAMRA taken up by MCF-7^wt and MCF-7^adr cells after exposure to 0.5 mg/ml of same for 20 min. Dotted lines represent controls (line “a”: MCF-7^wt; line “b”: MCF-7^adr). Solid lines represent the cells treated with Tat-GdDOTA-TAMRA (line “c”: MCF-7^wt; line “d”: MCF-7^adr). […] A FACSCalibur (Becton Dickinson Biosciences, San Jose, Calif., U.S.A.) was used for flow cytometry. Acquisition and analysis were performed with Cell Quest software (Becton Dickinson Biosciences, San Jose, Calif., U.S.A.).
as §2

[3] = MRI relaxation times of water sample doped with GdDTPA; assay type: physicochemical; conditions: water sample doped with GdDTPA (0.05 M)
[4] = system: wild type KB tumor; conditions: cited from earlier work
[5] = T1 relaxivity of the agent at 9.4T; assay type: physicochemical
From the text: (§3) Materials. An HIV-1 Tat basic domain peptide-GdDOTA-carboxytetramethylrhodamine conjugates (Tat-GdDOTA-TAMRA, MW=2,989; as shown in FIG. 1) was custom-synthesized by Global Peptide Services, LLC (Fort Collins, Colo., U.S.A.). The specific T1 relaxivity (R,) of the agent at 9.4T is 4.9 (sec·mM)^−1. Monoclonal anti-P-gp [P-7965], streptavidin-QR conjugates [S-2899], and rhodamine 123 [R-8004] were purchased from Sigma Chemical Company (St. Louis, Mo., U.S.A.). Heptakis-(2,6-di-O-methyl)-β-cyclodextrin (DMCD) and cyclosporin A were purchased from Sigma-Aldrich Co. (St. Louis, Mo., U.S.A.). 4′,6-diamidino-2-phenylindole (DAPI) was obtained from Invitrogen Corp. (Carlsbad, Calif., U.S.A.). All other chemicals were obtained as reagent-grade products. Cell lines. Human breast adenocarcinoma (MCF-7^wt) and its multi-drug-resistant variant (MCF-7^adr) were maintained in Eagle's minimum essential medium (EMEM) with 1% penicillin, streptomycin, and 10% fetal bovine serum at 37° C. with 5% CO2. For MCF-7^adr cells, the growth medium was supplemented with 1.5 μM of adriamycin every medium change. Flow cytometry and fluorescent microscopy. Initially, to check P-gp expression and P-gp function of both cell lines, flow cytometry was implemented using a double staining technique as follows. […]

[6] = system: MCF-7^adr cells; experiment: In vitro MRI T1 measurement of labeled cells; assay type: cell-based, Human
Procedure: as §2
(§4) Confocal microscopy. MCF-7^wt and MCF-7^adr cell lines were separately seeded in each 4-chamber glass slide (Nalge Nunc International Corp., Naperville, Ill., U.S.A.). Cells were incubated with 250 μl of Tat-GdDOTA-TAMRA (10 μg/ml) for 30 min in the 5% CO2 incubator. Cell nuclei were stained with DAPI ([…]) for 5 min. Cells were fixed with 3% paraformaldehyde for 15 min, and mounted under a coverslip following removal of plastic chambers. Confocal studies were performed with an inverted Zeiss LSM 410 confocal microscope (Carl Zeiss AG, Jena, Germany) using a 40× water immersion lens. In vitro MRI study. For the in vitro MRI study, the cell labeling procedure followed the protocol used for flow cytometry and microscopy studies, except that 20 µM of cyclosporin A was used, rather than DMCD as a multidrug resistance inhibitor. Cell suspensions were transferred into micro-centrifuge PCR tubes. MRI was carried out on a Bruker horizontal bore 9.4T spectrometer (Bruker Biospin GmbH, Rheinstetten, Germany) equipped with shielded gradients. The Paravision 3.0.2 program (Bruker Biospin GmbH) was used as acquisition software. […] Quantitative T1, maps of the samples were reconstructed using custom-written software in the IDL programming environment Research Systems Inc., Boulder, Colo., U.S.A.) that runs on Linux workstations. Final analysis was performed with the Image) program. (NIH, Bethesda, Md., U.S.A.).

[7] = system: MCF-7^wt cells; experiment: In vitro MRI T1 measurement of labeled cells; assay type: cell-based, Human
Procedure: as §2, §4

[8] = system: MCF-7^wt cells; experiment: Fluorescent microscopy of contrast agent uptake; assay type: cell-based, Human; conditions: 0.5 mg/ml for 20 min
Procedure: as §1, §2

[9] = system: MCF-7^adr cells; experiment: Confocal microscopy of contrast agent with DAPI nuclei staining; assay type: cell-based, Human; conditions: MDR cells, 10 μg/ml for 30 min
Procedure: (§5) Confocal microscopy. MCF-7^wt and MCF-7^adr cell lines were separately seeded in each 4-chamber glass slide (Nalge Nunc International Corp., Naperville, Ill., U.S.A.). Cells were incubated with 250 μl of Tat-GdDOTA-TAMRA (10 μg/ml) for 30 min in the 5% CO2 incubator. Cell nuclei were stained with DAPI ([…]) for 5 min. Cells were fixed with 3% paraformaldehyde for 15 min, and mounted under a coverslip following removal of plastic chambers. Confocal studies were performed with an inverted Zeiss LSM 410 confocal microscope (Carl Zeiss AG, Jena, Germany) using a 40× water immersion lens. In vitro MRI study. […] A saturation recovery snapshot-FLASH pulse sequence with an excitation pulse flip angle of 10 degrees, an echo time of 1.245 ms, and ten T1, saturation recovery delays (50, 100, 250, 500, 1,000, 1,500, 2,000, 3,000, 5,000, 12,000 ms) were used (Bhujwalla, Z. M., Artemov, D., Natarajan, K., Ackerstaff, E. & Solaiyappan, M., “Vasuclar Differences Detected by MRI for Metastatic Versus Nonmetastatic Breast and Prostate Cancer Xenografts”, Neoplasia 3, 143-153 (2002)). Quantitative T1, maps of the samples were reconstructed using custom-written software in the IDL programming environment Research Systems Inc., Boulder, Colo., U.S.A.) that runs on Linux workstations. […]

[10] = system: MCF-7^wt cells; experiment: as above; assay type: cell-based, Human; conditions: wild type cells, 10 μg/ml for 30 min
Procedure: as §5

[11] = system: MCF-7^adr cells; experiment: Flow cytometry of rhodamine 123 uptake (double staining with anti-P-gp); assay type: cell-based, Human; conditions: 30 min incubation
From the text: as §3

[12] = system: MCF-7^wt cells; experiment: as above; assay type: cell-based, Human; conditions: 30 min incubation
From the text: as §3

[13] = MCF-7^adr, 0.5 mg/ml for 20 min

## COC[C@H]1O[C@@H]2O[C@H]3[C@H](O)[C@@H](OC)[C@@H](O[C@H]4[C@H](O)[C@@H](OC)[C@@H](O[C@H]5[C@H](O)[C@@H](OC)[C@@H](O[C@H]6[C@H](O)[C@@H](OC)[C@@H](O[C@H]7[C@H](O)[C@@H](OC)[C@@H](O[C@H]8[C@H](O)[C@@H](OC)[C@@H](O[C@H]1[C@H](O)[C@H]2OC)O[C@@H]8COC)O[C@@H]7COC)O[C@@H]6COC)O[C@@H]5COC)O[C@@H]4COC)O[C@@H]3COC [DMCD, Heptakis-(2,6-di-O-methyl)-β-cyclodextrin, reference compound]
[1]; MCF-7^adr pre-treated with inhibitor for 20 min
  retention of Tat-GdDOTA-TAMRA conjugates after MDR inhibitor pre-treatment (microscopy): high retention
[2]; MCF-7^adr pre-treated with inhibitor
  uptake of Tat-GdDOTA-TAMRA after MDR inhibitor pre-treatment (FACS): recovered almost to the level typical for wild type cells

## O=C([O-])CN(CCN(CC(=O)[O-])CC(=O)O)CCN(CC(=O)[O-])CC(=O)O.[Gd+3] [GdDTPA]
[3]
  T1 relaxation time: ~25 ms
  T2 relaxation time: ~25 ms

## [C-]#[N+]CC(C)(C)OC.[C-]#[N+]CC(C)(C)OC.[C-]#[N+]CC(C)(C)OC.[C-]#[N+]CC(C)(C)OC.[C-]#[N+]CC(C)(C)OC.[C-]#[N+]CC(C)(C)OC.[Tc] [[^99mTc]SESTAMIBI]
[4]
  retention in tumor: retained

## HIV-1 Tat basic domain peptide-GdDOTA-carboxytetramethylrhodamine conjugates [Tat-GdDOTA-TAMRA]
[5]
  specific T1 relaxivity: 4.9 s/mM
[6]; MCF-7^adr cells, 0.5 mg/ml agent for 20 min, 9.4T MRI, averaged T1
  T1: 2.05 ± 0.06 s
[6]; MCF-7^adr, treated vs control (Table 1 columns 6 and 7)
  T1 reduction (ΔT1): 0.3 ± 0.11 s
[6]; MDR cells treated with the conjugates alone
  effect on T1 relaxation time: almost no decrease
[7]; MCF-7^wt cells, 0.5 mg/ml agent for 20 min, 9.4T MRI, averaged T1
  T1: 1.79 ± 0.02 s
[7]; MCF-7^wt, treated vs control (Table 1 columns 2 and 3)
  T1 reduction (ΔT1): 0.54 ± 0.11 s
[7]; wild type cells, 0.5 mg/ml
  effect on T1 relaxation time: significantly decreased; also recorded: significantly reduced
[1]; [13]
  fluorescence detected by microscopy: Lower or no fluorescence
[8]
  uptake by fluorescence microscopy: Efficient uptake
[2]; [13]
  agent delivered into cells by FACS, in comparison to MCF-7^wt: significantly lower
[9]
  intracellular localization (confocal): significantly less compound and less co-localization with nuclei
[10]
  intracellular localization (confocal): co-localized with nuclei

## rhodamine 123
[11]
  accumulation of rhodamine 123: reduced accumulation
[12]
  accumulation of rhodamine 123: efficient accumulation
